According to paper PMC9395968, “Pristimerin, a triterpene that inhibits monoacylglycerol lipase activity, prevents the development of paclitaxel-induced allodynia in mice” (Frontiers in Pharmacology, 2022):

Experiments:
[1] = target: T1, human recombinant monoacylglycerol lipase (MAGL) (Homo sapiens, UniProt Q99685); experiment: colorimetric MAGL inhibitor screening kit (4-nitrophenyl acetate hydrolysis, […] nm); format: biochemical
T1 construct: gene MGLL
T1 sequence (Q99685 1-303): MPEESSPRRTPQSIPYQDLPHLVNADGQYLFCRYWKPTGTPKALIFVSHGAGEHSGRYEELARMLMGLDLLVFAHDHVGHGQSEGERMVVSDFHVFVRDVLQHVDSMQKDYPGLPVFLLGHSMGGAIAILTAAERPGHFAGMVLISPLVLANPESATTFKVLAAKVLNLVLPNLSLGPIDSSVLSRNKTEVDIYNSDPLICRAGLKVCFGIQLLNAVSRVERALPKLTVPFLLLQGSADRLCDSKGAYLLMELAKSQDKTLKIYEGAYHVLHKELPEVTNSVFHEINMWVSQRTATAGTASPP

[2] = target: T2, mouse monoacylglycerol lipase (MAGL) (Mus musculus, UniProt O35678); experiment: fluorometric MAGL activity assay in paw skin supernatant (brain IC50 […]); format: biochemical
T2 construct: gene Mgll
T2 sequence (O35678 1-303): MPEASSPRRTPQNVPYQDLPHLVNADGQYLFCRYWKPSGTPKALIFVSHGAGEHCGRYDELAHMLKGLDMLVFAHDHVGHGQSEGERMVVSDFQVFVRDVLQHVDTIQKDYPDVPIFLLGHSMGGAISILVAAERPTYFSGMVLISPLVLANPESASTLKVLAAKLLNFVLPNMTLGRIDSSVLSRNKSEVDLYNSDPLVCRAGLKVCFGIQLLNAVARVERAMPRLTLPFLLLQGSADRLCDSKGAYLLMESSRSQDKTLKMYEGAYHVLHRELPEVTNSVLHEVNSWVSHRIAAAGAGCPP

COC(=O)[C@]1(C)CC[C@]2(C)CC[C@]3(C)C4=CC=C5C(=CC(=O)C(O)=C5C)[C@]4(C)CC[C@@]3(C)[C@@H]2C1 [pristimerin]
IC50 [1]: 130 nM | IC50 [2]: 596 nM
